Data set [1] concerns the target T1, Recombinantly produced human furin (Homo sapiens, UniProt P09958).
T1 construct: made in house
As to the kind of experiment: Enzyme kinetic studies to determine the inhibitory effect on furin (fluorogenic substrate Pyr-Arg-Thr-Lys-Arg-AMC). Format: biochemical. The procedure: The determination of the inhibitory effect was carried out with a fluorescence plate reader Safire^2 from the Tecan company (λEx=380 nm, λEm=460 nm) and Pyr-Arg-Thr-Lys-Arg-AMC (Bachem, No: I-1650) as the substrate. Recombinantly produced human furin (Kacprzak, M. M. et al., J. Biol. Chem., 2004, 279, 36788-36794) was used in the measurement assay in a concentration of approx. 0.95 nM.
To determine the inhibition constants, the inhibitor concentration was varied at least over the range of an order of magnitude at a constant substrate concentration (12.5 μM in the assay), and, respectively, the steady-state velocity was determined. Km and Vmax were determined by means of v/S characteristics parallel to each inhibitor measurement. The calculation of Ki values was carried out through adjustment of the determined velocities as a function of the inhibitor concentration to the velocity equation for competitively, reversibly-binding inhibitors: […]

Another data set addresses furin (Homo sapiens, UniProt P09958). As to conditions: Kacprzak et al., J. Biol. Chem. 2004; read-out: inhibition constant (Ki value) for furin; cited from earlier work.
The next data set concerns MDCK cells. The settings on record: 25 μM inhibitor, 72 h.
The subject of data set [2] is avian influenza virus (FPV) A/FPV/Rostock/34 (H7N1). It is filed as cell-based, influenza virus A/FPV/Rostock/34 (H7N1). The settings on record: 25 μM inhibitor, MDCK cells, MOI 10^-5, 72 h.
Where [3] appears, read: Table 2, substrate 12.5 μM, furin approx. 0.95 nM, competitive reversible model, read-out: Ki value for the inhibition of furin.
Setting [4] is: Table 3, methods as in practical embodiment 6, read-out: Ki for the inhibition of furin.

Read-outs that look alike come from different tables or passages of the source. Square brackets hold non-standard residues; d marks the D form. Peptide text beside a SMILES is read from it. * marks the point of attachment. hArg = N=C(N)NCCCC[C@H](N)C(=O)O; Agmatine = N=C(N)NCCCCN*; PhAc = O=C(Cc1ccccc1)*

T1 sequence (P09958 108-794): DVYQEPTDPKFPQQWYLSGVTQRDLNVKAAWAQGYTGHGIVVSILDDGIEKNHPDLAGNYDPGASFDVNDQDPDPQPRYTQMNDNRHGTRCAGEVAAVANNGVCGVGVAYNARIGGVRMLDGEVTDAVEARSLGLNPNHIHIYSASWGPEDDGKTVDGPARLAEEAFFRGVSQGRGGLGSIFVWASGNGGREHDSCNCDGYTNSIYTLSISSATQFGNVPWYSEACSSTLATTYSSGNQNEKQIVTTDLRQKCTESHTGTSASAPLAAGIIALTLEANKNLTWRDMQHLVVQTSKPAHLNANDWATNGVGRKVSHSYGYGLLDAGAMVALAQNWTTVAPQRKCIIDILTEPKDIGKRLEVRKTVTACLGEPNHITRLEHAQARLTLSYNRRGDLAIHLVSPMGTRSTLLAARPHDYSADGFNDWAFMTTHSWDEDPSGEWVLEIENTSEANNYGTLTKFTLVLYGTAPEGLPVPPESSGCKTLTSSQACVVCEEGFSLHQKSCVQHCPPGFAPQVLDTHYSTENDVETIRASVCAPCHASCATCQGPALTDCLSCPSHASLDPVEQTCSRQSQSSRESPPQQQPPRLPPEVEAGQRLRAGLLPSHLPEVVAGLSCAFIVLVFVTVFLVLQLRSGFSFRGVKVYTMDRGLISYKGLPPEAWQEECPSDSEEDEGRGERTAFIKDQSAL
Sequence of furin (P09958 108-794, species assumed): as the sequence (P09958 108-794) above

The Ki is the dissociation constant of the complex between target and ligand, obtained from inhibition or displacement. Turning to `CC(C)[C@H](NC(=O)[C@H](CCCNC(=N)N)NC(=O)Cc1ccccc1)C(=O)N[C@@H](CCCCN)C(=O)NCCCCNC(=N)N` [Inhibitor 10] (PhAc-Arg-Val-Lys-Agmatine), the Ki in data set [1] (setting [3]) was 49 nM. As to hexa-D-arginine-amide, the Ki at furin is 7.6 nM. Regarding `CC(C)[C@H](NC(=O)[C@H](CCCNC(=N)N)NC(=O)Cc1ccccc1)C(=O)N[C@@H](CCCNC(=N)N)C(=O)NCc1ccc(C(=N)N)cc1` [Inhibitor 1], the “vitality of the cells” value in the data set on MDCK cells is on record as “not influenced”. The “delay of virus release in relation to the untreated control group” value in data set [2] is reported as “about 24 h”.

`Cc1ccc(S(=O)(=O)NC(CCCNC(=N)N)C(=O)NC(C(=O)NC(CCCNC(=N)N)C(=O)NCc2ccc(C(=N)N)cc2)C(C)C)cc1` (stereo not drawn) [Inhibitor 29]: the Ki in data set [1] (setting [4]) was determined as 4.8 nM. With `CC(C)C(NC(=O)C(CCCNC(=N)N)NC(=O)Cc1ccccc1)C(=O)NC(CCCNC(=N)N)C(=O)NCCCCN` (stereo not drawn) [Inhibitor 2a], in data set [1] (setting [3]), the Ki stood at 25000 nM. As to `CC(C)C(NC(=O)C(N)CCCNC(=N)N)C(=O)NC(CCCNC(=N)N)C(=O)NCc1ccc(C(=N)N)cc1` (stereo not drawn) [Inhibitor 26], the Ki in data set [1] (setting [4]) turned out to be 7.6 nM. In the case of `CC(C)C(NC(=O)C(CCCNC(=N)N)NC(=O)Cc1ccccc1)C(=O)NC(CCCNC(=N)N)C(=O)NCC1CCNCC1` (stereo not drawn) [Inhibitor 3a], the Ki in data set [1] (setting [3]) stood at 10000 nM. Take `CCCC(=O)NC(CCCNC(=N)N)C(=O)NC(C(=O)NC(CCCNC(=N)N)C(=O)NCc1ccc(C(=N)N)cc1)C(C)C` (stereo not drawn) [Inhibitor 17]: the Ki in data set [1] (setting [4]) came to 0.77 nM. On the same count and under the same terms, in the case of `CC(C)C(NC(=O)C(CCCNC(=N)N)NC(=O)Cc1ccccc1)C(=O)NC(CCCCN)C(=O)NCc1ccc(C(=N)N)cc1` (stereo not drawn) [Inhibitor 33] it was 1.5 nM.

Regarding `CC(C)C(NC(=O)C(CCCNC(=N)N)NC(=O)Cc1ccccc1)C(=O)NC(CCCCN)C(=O)NCCCCN` (stereo not drawn) [Inhibitor 14], the Ki in data set [1] (setting [4]) is 5410 nM. On to `CC(C)[C@H](NC(=O)[C@H](CCCNC(=N)N)NC(=O)Cc1ccccc1)C(=O)N[C@@H](CCCNC(=N)N)C(=O)NCCCCNC(=N)N` [Inhibitor 2] (PhAc-Arg-Val-Arg-Agmatine), for which, in data set [1] (setting [3]), the Ki was determined as 77 nM. As for `CCCCCCCCCCCC(=O)NC(CCCNC(=N)N)C(=O)NC(C(=O)NC(CCCNC(=N)N)C(=O)NCc1ccc(C(=N)N)cc1)C(C)C` (stereo not drawn) [Inhibitor 21], the Ki in data set [1] (setting [4]) worked out at 6.7 nM.

Consider `CCCCCC(=O)NC(CCCNC(=N)N)C(=O)NC(C(=O)NC(CCCNC(=N)N)C(=O)NCc1ccc(C(=N)N)cc1)C(C)C` (stereo not drawn) [Inhibitor 18], for which, in data set [1] (setting [4]), the Ki worked out at 0.82 nM. Consider `CC(C)C(NC(=O)C(CCCNC(=N)N)NC(=O)Cc1ccccc1)C(=O)NC(CCCNC(=N)N)C(=O)NCC1CCNCC1` (stereo not drawn) [Inhibitor 15], for which, in data set [1] (setting [4]), the Ki was 9710 nM. On the same count and under the same terms, in the case of `CC(C)C(NC(=O)C(CCCNC(=N)N)NC(=O)Cc1ccc(Cl)c(Cl)c1)C(=O)NC(CCCNC(=N)N)C(=O)NCc1ccc(C(=N)N)cc1` (stereo not drawn) [Inhibitor 28] it was 1.2 nM. On to `CC(C)C(NC(=O)C(CCCNC(=N)N)NC(=O)Cc1ccccc1)C(=O)NC(CCCNC(=N)N)C(=O)NCCCN` (stereo not drawn) [Inhibitor 4a], for which, in data set [1] (setting [3]), the Ki was found to be 1300 nM. On to `N=C(N)NCCCC(NC(=O)Cc1ccccc1)C(=O)NC(CN)C(=O)NC(CCCCN)C(=O)NCc1ccc(C(=N)N)cc1` (stereo not drawn) [Inhibitor 39], for which the Ki in data set [1] (setting [4]) turned out to be 3.7 nM.

Turning to `CC(C)C(NC(=O)C(CCCNC(=N)N)NC(=O)Cc1ccccc1)C(=O)NC(CCCNC(=N)N)C(=O)NCCCNC(=N)N` (stereo not drawn) [Inhibitor 4], in data set [1] (setting [3]), the Ki is 97 nM. In the case of `CC(=O)NC(CCCNC(=N)N)C(=O)NC(C(=O)NC(CCCNC(=N)N)C(=O)NCCCCN)C(C)C` (stereo not drawn) [Inhibitor 12], the Ki in data set [1] (setting [4]) came to 41200 nM. For the molecule Nona-D-arginine-amide, at furin, the Ki is 1.3 nM. As for `CCCCCCCC(=O)NC(CCCNC(=N)N)C(=O)NC(C(=O)NC(CCCNC(=N)N)C(=O)NCc1ccc(C(=N)N)cc1)C(C)C` (stereo not drawn) [Inhibitor 19], the Ki in data set [1] (setting [4]) worked out at 0.82 nM. Regarding `CC(C)[C@H](NC(=O)[C@H](CCCNC(=N)N)NC(=O)Cc1ccccc1)C(=O)N[C@@H](CCCCNC(=N)N)C(=O)NCCCCNC(=N)N` [Inhibitor 11] (PhAc-Arg-Val-[hArg]-Agmatine), the Ki in data set [1] (setting [3]) came to 47 nM. As for `CCCCCCCCCCCCCC(=O)NC(CCCNC(=N)N)C(=O)NC(C(=O)NC(CCCNC(=N)N)C(=O)NCc1ccc(C(=N)N)cc1)C(C)C` (stereo not drawn) [Inhibitor 22], the Ki in data set [1] (setting [4]) was determined as 56.9 nM.

Source of the values: patent US8865865B2, “N-terminally modified tetrapeptide derivatives having a C-terminal arginine mimetic” (Philipps-Universitat Marburg, priority 2008, dated 2014).
